Laboratory results from US12650432B2, “SCARA5 and DIO2 as biomarkers for miscarriage and implantation failure” (The University of Warwick, priority 2019, dated 2026).
“And” between values parts separate entries of the source, which are not always exact repeats. Equal values may be shown once. Marks after values point to notes of the source that are not given here.

Key:
[1] = test system: SCARA5; experiment: RT-qPCR of SCARA5 mRNA (decidual cell marker) in paired endometrial biopsies; format: in vivo, human; conditions: second vs baseline biopsy, oral 100 mg daily for 3 cycles, n=16
Method: (§1) RNA was extracted from RNAlater preserved tissue using the RNeasy Lipid Tissue Mini Kit (QIAGEN, Manchester, UK), with on-column DNase treatment, according to the manufacturer's instructions. RNA was assessed using a Nanodrop ND-1000 spectrophotometer and 1 μg RNA used for reverse transcription, performed using the Quantitect Reverse Transcription Kit (QIAGEN) according to manufacturer's instructions. Thermal cycling was performed on a QuantStudio 5 Real-Time PCR System (ThermoFisher, Paisley, UK), using PrecisionPlus 2× Mastermix (Primer Design, Southampton, UK), 300 nM each forward and reverse primers and 1 μl cDNA. L19 was used as a reference gene and data were analysed using the Pfaffl method (68).
(§2) Induction of PRL and IGFBP1 expression is widely used to monitor the decidual response in cultured EnSC (14).

[2] = Adverse events and side effects in trial participants; format: in vivo, human
Method: (§3) Following written informed consent, participants were given a digital home ovulation test kit (Clearblue, Geneva, Switzerland), an emergency contact card, and barrier contraception. Participants then attended the clinic 7-10 days after the luteinizing hormone (LH) surge (LH+7-10). Following a negative urine pregnancy test, a transvaginal pelvic ultrasound scan was performed. Endometrial thickness was defined as the maximal endometrium diameter measured in a mid-sagittal plane. Next, an endometrial biopsy was obtained using a Wallach Endocell® endometrial sampler. The sample, designated ‘baseline biopsy’, was immediately portioned with one part stored in RNALater Stabilization Solution (Sigma-Aldrich, Dorset, UK) one part snap frozen in liquid nitrogen, one part fixed in 10% formalin for immunohistochemistry, and the remainder placed in 10% DMEM/F12 for isolation of primary endometrial stromal cells (see below). Following randomisation (see below), trial medication was provided and all participants attended two follow-up clinics at 4 weeks±4 day intervals. At these follow-up visits a urine pregnancy test was carried out, symptom diaries were reviewed, adverse events reported, and willingness for continued participation confirmed. At the second follow-up visit, participants were provided with another home ovulation test kit. In the third cycle, participants attended the clinic on LH+7-10 for a repeat transvaginal ultrasound scan with measurement of endometrial thickness and endometrial biopsy. The sample, designated ‘second biopsy’, was processed identically to the baseline biopsy. Trial medication was stopped on the day of the second biopsy.
(§4) Participants were provided with compliance and symptom diaries at each visit. Diaries were assessed at every follow-up or biopsy visit. Acceptability and satisfaction of the study was assessed with a Likert scale-based questionnaire completed by participants after their final visit. Participants who conceived after completion of the study were requested to contact the trial team and outcome of the first pregnancy within one year of study completion was recorded.

[3] = granulocyte-CSF-dependent mobilisation of BMDC followed by sitagliptin 100 mg for 28 days; cited from earlier work
[4] = test system: haematopoietic stem and progenitor cells; conditions: up to 600 mg twice daily, after umbilical cord blood transplantation; cited from earlier work
[5] = test system: IGFBP1; experiment: RT-qPCR of IGFBP1 transcript in paired endometrial biopsies; format: in vivo, human; conditions: second vs baseline biopsy, oral 100 mg daily for 3 cycles, n=16
Method: as §1, §2

[6] = test system: endometrial stromal cells (EnSC); experiment: Colony-forming unit (CFU) assay on EnSC from paired endometrial biopsies, randomised placebo-controlled trial in RPL patients; format: in vivo, human
Source text: Participants were recruited from a tertiary recurrent miscarriage clinic at UHCW NHS Trust. […] Participants agreed to actively avoid pregnancy and use barrier contraception for the duration of the trial.
Participants were instructed to take the capsules once daily from the day of the baseline biopsy for 3 menstrual cycles until the second biopsy was taken. The control group were allocated identical placebo capsules also supplied by Sharp Clinical Services and instructed to take these exactly as the intervention group.
as §3
Primary EnSC were isolated according to our published protocol (65). Briefly, samples were washed in DMEM/F-12 medium (Invitrogen), finely minced and enzymatically digested with 0.5 mg/ml collagenase (Sigma-Aldrich) and 0.1 mg/ml deoxyribonuclease type I (Roche, Burgess Hill, UK) for 1 hour in 5% CO2 at 37° C. Stromal and epithelial fractions were separated and cryopreserved in 10% DMSO in dextran-coated charcoal-stripped fetal bovine serum (DCC; 2 ml per vial; Invitrogen), with the stromal fraction split into two or three vials depending on the biopsy size. After controlled cooling at −80° C. overnight, samples were transferred to liquid nitrogen for storage.
All CFU assays were conducted in batches, consisting of paired primary endometrial stromal cells isolated from baseline and second biopsies from 3 or 4 participants. CFU assays were established as described previously (66). Briefly, cryopreserved stromal cells were thawed for 3 minutes at 37° C. and then transferred immediately into pre-warmed growth medium (DMEM-F12 medium containing 10% DCC supplemented with 1% L-Glutamine and 1% antibiotic-antimycotic mix; Invitrogen). Cells were pelleted by centrifugation at 276×g for 5 minutes, supernatant was aspirated and cells were resuspended in 10 ml growth medium. Viable stromal cells were counted in trypan blue on a Neubauer Improved haemocytometer and seeded at clonal density (53 cells/cm2) onto fibronectin-coated 6-well plates (10 μg/ml in PBS; Sigma-Aldrich) in growth medium supplemented with […] basic fibroblast growth factor (Sigma Aldrich). Three wells, containing 500 cells each, were seeded per biopsy. Plates were cultured in 5% CO2 at 37° C., and left undisturbed for 3 days after which growth was monitored to ensure colonies arose from single cells.

[7] = Outcome of first pregnancy within 12 months after study completion; format: in vivo, human; conditions: sitagliptin group
Method: as §4

[8] = test system: PRL; experiment: RT-qPCR of PRL transcript in paired endometrial biopsies; format: in vivo, human; conditions: second vs baseline biopsy, oral 100 mg daily for 3 cycles, n=16
Method: as §1, §2

[9] = test system: DIO2; experiment: RT-qPCR of DIO2 mRNA (senescent decidual cell marker) in paired endometrial biopsies; format: in vivo, human
Method: as §1, §2

[10] = sitagliptin group (n = 16), baseline biopsy before treatment

N[C@@H](CC(=O)N1CCn2c(nnc2C(F)(F)F)C1)Cc1cc(F)c(F)cc1F [sitagliptin]
SCARA5 mRNA level normalized to L19 [1]: not altered significantly
Adverse events, overall statement ([2]; pre-pregnancy sitagliptin treatment in RPL patients): no adverse events were reported
Chills, events ([2]; sitagliptin group n = 19): 1
Diarrhoea, events ([2]; sitagliptin group n = 19): 0
Dizziness, events ([2]; sitagliptin group n = 19): 2
Dizziness, participants ([2]; sitagliptin group n = 19): 1
Dry Nose, events ([2]; sitagliptin group n = 19): 0
Dry mouth, events ([2]; sitagliptin group n = 19): 1
Headache, events ([2]; sitagliptin group n = 19): 10
Headache, participants ([2]; sitagliptin group n = 19): 4
Low Mood, events ([2]; sitagliptin group n = 19): 1
Mouth ulcers, events ([2]; sitagliptin group n = 19): 0
Myalgia, events ([2]; sitagliptin group n = 19): 1
Nausea, events ([2]; sitagliptin group n = 19): 1
Night sweats, events ([2]; sitagliptin group n = 19): 1
Nose bleed, events ([2]; sitagliptin group n = 19): 0
Rash, events ([2]; sitagliptin group n = 19): 0
Sore Throat, events ([2]; sitagliptin group n = 19): 1
Stuffy Nose, events ([2]; sitagliptin group n = 19): 0
Thinning of hair, events ([2]; sitagliptin group n = 19): 0
Thirst, events ([2]; sitagliptin group n = 19): 1
UTI, events ([2]; sitagliptin group n = 19): 1
Cardiac function [3]: failed to improve cardiac function
Engraftment of haematopoietic stem and progenitor cells in bone marrow [4]: improve engraftment of haematopoietic stem and progenitor cells in bone marrow
IGFBP1 transcript level normalized to L19 [5]: not significantly different
Second biopsy CFU count, Median (IQR, Range) ([6]; RPL patients, oral 100 mg once daily for 3 menstrual cycles): 14.0 (8.0-29.0, 3-145)^‡ per 1500 EnSC
Median increase in CFU count, second compared to baseline biopsy ([6]; after 3 cycles of sitagliptin): +7 per 1500 EnSC
Mean CFU count in second biopsy higher than placebo group, adjusted for baseline CFU count ([6]; after 3 cycles, oral 100 mg daily): 51%
Mean CFU count, second biopsy ([6]; all data, RPL patients, oral 100 mg once daily for 3 menstrual cycles): 27.67 per 1500 EnSC
Mean CFU count, second biopsy ([6]; all data, RPL patients, oral 100 mg once daily for 3 menstrual cycles, listed as Sitagliptin): 27.7 (35.8) per 1500 EnSC and 27.7 per 1500 EnSC
Average increase in CFU counts compared to baseline biopsy ([6]; sitagliptin given for 3 menstrual cycles): 68%
Baseline CFU count, Mean (SD) [6, 10]: 16.1 (19.6) per 1500 EnSC
Baseline CFU count, Median (IQR, Range) [6, 10]: 8.5 (4.5-17.8, 1-74) per 1500 EnSC
Mean CFU count, second biopsy ([6]; subgroup excluding women with outlying CFU counts (>20 colonies per 1500 cells), after 3 cycles): 14.42 per 1500 EnSC
Termination of pregnancy at 16 weeks for a fetal abnormality [7]: one
Live births ([7]; 12 pregnancies): 8
Spontaneous pregnancy losses before 12 weeks of gestation ([7]; 12 pregnancies): 3
PRL transcript level normalized to L19 [8]: not significantly different
DIO2 mRNA level, median, second biopsy ([9]; after 3 cycles oral 100 mg daily, n=16, normalized to L19, P=0.0182 vs baseline): 3.86 a.u.
DIO2 mRNA level, median, baseline biopsy ([9]; sitagliptin group before treatment, n=16, normalized to L19): 5.09 a.u.
